Key:
IL-1β = IL-1β level in skin tissue, psoriasis model mice; assay type: in vivo, BALB/c male mice; details: 12 days, compared with model control group
Description: (§1) A shaving area on the back of the mice in each group is 2.5 cm×3 cm, and the vellus is removed with mild depilatory cream. The mice of each group except the blank control group are modeled by administrating 62.5 mg 5% imiquimod cream on the shaving area until the skin is thickened and has erythema and silver scales for modeling completely. During the model establishment, 5% imiquimod cream is administrated once a day, and continuously administrated for 14 days. On the third day, the model establishment is continued and drugs are administered at the same time, wherein the mice in the AC intragastric administration group (8 mg/kg), the anemoside B4 intragastric (i.g.) administration group (5 mg/kg), the anemoside B4 intragastric administration group (10 mg/kg), and the anemoside B4 intragastric administration group (20 mg/kg) are administrated once a day, and continuously administrated for 12 days. […] The mice in the blank control group and the model control group are applied 62.5 mg Vaseline to the skin lesions once a day, and continuously applied for 12 days. The weight of the mice is recorded for counting the weight change of the mice. 100 mg skin tissue of the mice in each group of the first animal group are precisely weighed, added 0.9 mL ice normal saline, homogenized with the tissue grinder, and centrifuged at 4° C. and 3000 rpm for 10 min. The supernatant is collected, and IL-12, IL-17, IL-6 and IL-1β level in the skin tissue are measured by kits according to the procedures of specification.

[1] = Weights of mice, 5% imiquimod-induced psoriasis model (first animal group); assay type: in vivo, BALB/c male mice; details: for weights of the mice / weight loss of the mice caused by psoriasis: 12 days; for weights of the mice: compared with blank control group; for weight loss of the mice caused by psoriasis: compared with model control group
Description: as §1, with “mice.” for “mice. 100 mg skin tissue of the mice in each group of the first animal group are precisely weighed, added 0.9 mL ice normal saline, homogenized with the tissue grinder, and centrifuged at 4° C. and 3000 rpm for 10 min. The supernatant is collected, and IL-12, IL-17, IL-6 and IL-1β level in the skin tissue are measured by kits according to the procedures of specification.”

M-CSF = M-CSF level in serum by ELISA, psoriasis model rats; assay type: in vivo, SD male rats; details: 7 days, vs model control group
Description: 60 SPF-grade SD male rats in the second animal group are divided into 6 groups: a blank control group, a model control group, an anemoside B4 intragastric administration group (5 mg/kg), an anemoside B4 intragastric administration group (10 mg/kg), an anemoside B4 intragastric administration group (20 mg/kg), and an acitretin intragastric administration group (5 mg/kg), and are respectively expressed into the blank control group, the model group, anemoside B4 5 mg/kg, anemoside B4 10 mg/kg, anemoside B4 20 mg/kg, and acitretin 5 mg/kg in FIGS. 3, 4 and 5 for convenience. A shaving area on the back of the rats in each group is 2.5 cm×3 cm, and the vellus is removed with mild depilatory cream. The rats of each group except the blank control group are modeled by administrating 62.5 mg 5% imiquimod cream on the shaving area until the skin is thickened and has erythema and silver scales for modeling completely.
5% imiquimod cream is administrated once a day, and continuously administrated for 8 days for model establishment. On the second day, the rats in each group are continuously intragastric (i.g.) administered drugs for 7 days.
After administration, blood is taken from abdominal aorta of the rats in each group of the second animal group, centrifuged to collect the serum, and measured the M-CSF, VEGF, IL-6 and IL-17 level in the serum by ELISA kits according to the procedures of specification.

psoriasis skin lesions = assay: Histopathological observation of skin (HE staining), psoriasis model mice; assay type: in vivo, BALB/c male mice; details: 12 days
Description: as §1, with “mice. After blood collection” for “mice. 100 mg skin tissue”, “animal group, the mice” for “animal group”, “are killed by dislocation of cervical vertebra, separated” for “are precisely weighed, added 0.9 mL ice normal saline, homogenized with”, “the skin” for “the tissue grinder, and centrifuged at 4° C. and 3000 rpm for 10 min. The supernatant is collected, and IL-12, IL-17, IL-6 and IL-1β level”, “skin lesions, and removed subcutaneous fat. Taking a part, fixing it with 4% paraformaldehyde, embedding, obtaining section, dying with hematoxylin and eosin (HE), and observing histopathological changes of” for “skin tissue are measured by kits according to”, “the skin under a light microscope.” for “the procedures of specification.”

[2] = intragastric 5 mg/kg once a day
[3] = intragastric 10 mg/kg once a day
[4] = intragastric 20 mg/kg once a day

C=C(C)[C@@H]1CC[C@]2(C(=O)O[C@@H]3O[C@H](CO[C@@H]4O[C@H](CO)[C@@H](O[C@@H]5O[C@@H](C)[C@H](O)[C@@H](O)[C@H]5O)[C@H](O)[C@H]4O)[C@@H](O)[C@H](O)[C@H]3O)CC[C@]3(C)[C@H](CC[C@@H]4[C@@]5(C)CC[C@H](O[C@@H]6OC[C@H](O)[C@H](O)[C@H]6O[C@@H]6O[C@@H](C)[C@H](O)[C@@H](O)[C@H]6O)[C@@](C)(CO)[C@@H]5CC[C@]43C)[C@H]12 [anemoside B4]
level of IL-1β in the skin tissue (IL-1β; [2]): significantly reduced | level of IL-1β in the skin tissue (IL-1β; [3]): significantly reduced | level of IL-1β in the skin tissue (IL-1β; [4]): significantly reduced | reversal of weight loss caused by imiquimod, compared with the acitretin capsules (AC) intragastric administration group ([1]; anemoside B4 groups, doses not specified): better | weights of the mice [1, 2]: significantly decreased | weight loss of the mice caused by psoriasis [1, 2]: can be improved | weights of the mice [1, 3]: significantly decreased | weight loss of the mice caused by psoriasis [1, 3]: can be improved | weights of the mice [1, 4]: significantly decreased | weight loss of the mice caused by psoriasis [1, 4]: can be improved | M-CSF level in serum (M-CSF; intragastric 5 mg/kg): significantly decreased | M-CSF level in serum (M-CSF; intragastric 10 mg/kg): significantly decreased | M-CSF level in serum (M-CSF; intragastric 20 mg/kg): significantly decreased | psoriasis skin lesions, HE staining of skin tissue (psoriasis skin lesions; [2]): significantly improved | psoriasis skin lesions, HE staining of skin tissue (psoriasis skin lesions; [3]): significantly improved | psoriasis skin lesions, HE staining of skin tissue (psoriasis skin lesions; [4]): significantly improved

From patent US11865129B2, “Application of anemoside B4 in preparation of a drug for treatment or prevention of psoriasis” (GUANGXI XINHAI PHARMACEUTICAL TECHNOLOGY CO., LTD., priority 2021, dated 2024)
